The record followed here is the supplement of paper PMC11208160.

This series is described as follows: recombinant UMI read abundance after kanamycin selection (control-corrected) (log10(CPM+1)); higher = more efficient recombination; extreme values may be limits of the assay; sequences stand for … in AGTGCAGAGAAAATCGGCCAGTTTTCTCTGCCTGCAGTCCGCATGCCGTGGGACCCCTTGGGTTCTAACCTGTTGCCTAGATTTATGCAGCGGACTGCCTTTCTCCCAAAGTGATAAACCGG…AGGTTGGTTTCACT; site = the 11-nt donor. Here is the method:
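Pooled E. coli donor-specificity screen for the IS621 bridge recombinase. Each library member carries a reprogrammed 11-nt donor and a full-length LE bridge RNA expressed in cis from the natural promoter, with a paired donor-binding loop (8-nt LDG + 4-nt RDG) and a target-binding loop fixed to T5. It is co-electroporated with a T5 target plasmid; recombinase is induced with 0.07 mM IPTG and recombinants are selected on kanamycin. UMIs are counted as CPM, averaged over two biological replicates and corrected by the unselected control. Molecule = full bridge RNA written as DNA, built from the T5 scaffold: LDG = donor specificity nt 1-8, RDG = reverse complement of nt 8-11.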
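Further: IS621 bridge recombinase in Escherichia coli cells against a fixed T5 target plasmid.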

Regarding “ACATCTACATGGACCGGTTTTCCCGGTAATCCGTATTTGTG (site ACATGTACTCA)”, the “recombinant UMI read abundance (log10)” value was 0.023.

Consider “ACATCTACATGGACCGGTTTTCCCGGTAATCCGTATTTGTG (site ACATTTACTCA)”, for which the “recombinant UMI read abundance (log10)” value came to 0.319.

Regarding “ACATCTACATGGACCGGTTTTCCCGGTAATCCGTATTTGTG (site ACCTCTACTCA)”, the “recombinant UMI read abundance (log10)” value is 0.0111.

As for “ACATCTACATGGACCGGTTTTCCCGGTAATCCGTATTTGTG (site ACGTCTACTCA)”, the “recombinant UMI read abundance (log10)” value stood at 0.0191.

On to “ACATCTACATGGACCGGTTTTCCCGGTAATCCGTATTTGTG (site ACTTCTACTCA)”, for which the “recombinant UMI read abundance (log10)” value was determined as 0.371.

Turning to “ACATCTACATGGACCGGTTTTCCCGGTAATCCGTATTTGTG (site AGATCTACTCA)”, the “recombinant UMI read abundance (log10)” value stood at 0.00667.

“ACATCTACATGGACCGGTTTTCCCGGTAATCCGTATTTGTG (site ATATCTACTCA)”: the “recombinant UMI read abundance (log10)” value was 0.245.

Regarding “ACATCTACATGGACCGGTTTTCCCGGTAATCCGTATTTGTG (site CCATCTACTCA)”, the “recombinant UMI read abundance (log10)” value came out at 0.465.

As to “ACATCTACATGGACCGGTTTTCCCGGTAATCCGTATTTGTG (site GCATCTACTCA)”, the “recombinant UMI read abundance (log10)” value came to 0.305.

Consider “ACATCTACATGGACCGGTTTTCCCGGTAATCCGTATTTGTG (site TCATCTACTCA)”, for which the “recombinant UMI read abundance (log10)” value is 0.0183.

As to “ACATGGTCATGGACCGGTTTTCCCGGTAATCCGTATTTGTC (site ACATGGTCTGA)”, the “recombinant UMI read abundance (log10)” value came to 1.81.

With “ACATTACCATGGACCGGTTTTCCCGGTAATCCGTATTTGCA (site ACAGTATCTTG)”, the “recombinant UMI read abundance (log10)” value was 1.21.

Regarding “ACATTACCATGGACCGGTTTTCCCGGTAATCCGTATTTGCA (site ACATTACCTTG)”, the “recombinant UMI read abundance (log10)” value is 0.

Turning to “ACATTATCATGGACCGGTTTTCCCGGTAATCCGTATTTGCC (site ACAGTATCTTG)”, the “recombinant UMI read abundance (log10)” value amounted to 0.

As to “ACATTATCATGGACCGGTTTTCCCGGTAATCCGTATTTGCC (site ACATTATCTGG)”, the “recombinant UMI read abundance (log10)” value was 2.56.

Take “ACATTGACATGGACCGGTTTTCCCGGTAATCCGTATTTGCC (site ACATTGACTGG)”: the “recombinant UMI read abundance (log10)” value stood at 2.

Take “ACCACCGCATGGACCGGTTTTCCCGGTAATCCGTATTTGCG (site ACCACCGCTCG)”: the “recombinant UMI read abundance (log10)” value stood at 0.455.

Take “ACCACCGCATGGACCGGTTTTCCCGGTAATCCGTATTTGCG (site CCCACCGCTCG)”: the “recombinant UMI read abundance (log10)” value came to 0.221.

Regarding “ACCACCGCATGGACCGGTTTTCCCGGTAATCCGTATTTGCG (site GCCACCGCTCG)”, the “recombinant UMI read abundance (log10)” value was 0.

“ACCACCGCATGGACCGGTTTTCCCGGTAATCCGTATTTGCG (site TCCACCGCTCG)”: the “recombinant UMI read abundance (log10)” value was found to be 0.0102.

On to “ACCACTCCATGGACCGGTTTTCCCGGTAATCCGTATTTGTA (site ACCACTCCTTA)”, for which the “recombinant UMI read abundance (log10)” value was determined as 0.852.

Take “ACCAGCCCATGGACCGGTTTTCCCGGTAATCCGTATTTGAT (site ACCAGCCCTAT)”: the “recombinant UMI read abundance (log10)” value was 0.0092.

Turning to “ACCCAGACATGGACCGGTTTTCCCGGTAATCCGTATTTGGG (site ACCAAGACTCC)”, the “recombinant UMI read abundance (log10)” value was 0.0107.

As for “ACCCAGACATGGACCGGTTTTCCCGGTAATCCGTATTTGGG (site ACCCAGACTCC)”, the “recombinant UMI read abundance (log10)” value stood at 0.036.

Regarding “ACCCAGACATGGACCGGTTTTCCCGGTAATCCGTATTTGGG (site ACCGAGACTCC)”, the “recombinant UMI read abundance (log10)” value was 0.00445.

For “ACCCAGACATGGACCGGTTTTCCCGGTAATCCGTATTTGGG (site ACCTAGACTCC)”, the “recombinant UMI read abundance (log10)” value amounted to 0.00599.

Consider “ACCCATACATGGACCGGTTTTCCCGGTAATCCGTATTTGAA (site ACCCATACTTT)”, for which the “recombinant UMI read abundance (log10)” value came out at 1.34.

For the sequence “ACCCGAACATGGACCGGTTTTCCCGGTAATCCGTATTTGTC (site ACACGAACTGA)”, the “recombinant UMI read abundance (log10)” value worked out at 0.

“ACCCGAACATGGACCGGTTTTCCCGGTAATCCGTATTTGTC (site ACCCGAACTGA)”: the “recombinant UMI read abundance (log10)” value stood at 1.95.

On to “ACCCGAACATGGACCGGTTTTCCCGGTAATCCGTATTTGTC (site ACGCGAACTGA)”, for which the “recombinant UMI read abundance (log10)” value came to 0.

Turning to “ACCCGAACATGGACCGGTTTTCCCGGTAATCCGTATTTGTC (site ACTCGAACTGA)”, the “recombinant UMI read abundance (log10)” value came out at 0.

Consider “ACCCTAGCATGGACCGGTTTTCCCGGTAATCCGTATTTGTT (site AACCTAGCTAA)”, for which the “recombinant UMI read abundance (log10)” value was 0.0322.

For “ACCCTAGCATGGACCGGTTTTCCCGGTAATCCGTATTTGTT (site ACCCTAGCTAA)”, the “recombinant UMI read abundance (log10)” value was found to be 0.

For “ACCCTAGCATGGACCGGTTTTCCCGGTAATCCGTATTTGTT (site AGCCTAGCTAA)”, the “recombinant UMI read abundance (log10)” value turned out to be 0.00512.

As to “ACCCTAGCATGGACCGGTTTTCCCGGTAATCCGTATTTGTT (site ATCCTAGCTAA)”, the “recombinant UMI read abundance (log10)” value stood at 0.016.

For the sequence “ACCCTGTCATGGACCGGTTTTCCCGGTAATCCGTATTTGGG (site ACCCTGTCTCC)”, the “recombinant UMI read abundance (log10)” value was determined as 0.

In the case of “ACCGAGCCATGGACCGGTTTTCCCGGTAATCCGTATTTGCG (site ACCGAGCCTCG)”, the “recombinant UMI read abundance (log10)” value came to 0.0257.

For the sequence “ACCGTAGCATGGACCGGTTTTCCCGGTAATCCGTATTTGTG (site ACCGTAGCTCA)”, the “recombinant UMI read abundance (log10)” value was determined as 0.533.

For “ACCGTATCATGGACCGGTTTTCCCGGTAATCCGTATTTGCA (site ACAGTATCTTG)”, the “recombinant UMI read abundance (log10)” value worked out at 2.58.

For the sequence “ACCGTATCATGGACCGGTTTTCCCGGTAATCCGTATTTGCA (site ACCGTATCTTG)”, the “recombinant UMI read abundance (log10)” value was found to be 2.45.

On to “ACCGTATCATGGACCGGTTTTCCCGGTAATCCGTATTTGCA (site ACGGTATCTTG)”, for which the “recombinant UMI read abundance (log10)” value amounted to 0.962.

“ACCGTATCATGGACCGGTTTTCCCGGTAATCCGTATTTGCA (site ACTGTATCTTG)”: the “recombinant UMI read abundance (log10)” value is 0.874.

For the sequence “ACCGTGGCATGGACCGGTTTTCCCGGTAATCCGTATTTGGA (site ACCGTGGCTTC)”, the “recombinant UMI read abundance (log10)” value is 0.325.

For “ACCGTTACATGGACCGGTTTTCCCGGTAATCCGTATTTGTC (site ACCGTTACTGA)”, the “recombinant UMI read abundance (log10)” value is 1.49.

With “ACCTAAACATGGACCGGTTTTCCCGGTAATCCGTATTTGGG (site ACCTAAACTCC)”, the “recombinant UMI read abundance (log10)” value turned out to be 0.256.

With “ACCTAAACATGGACCGGTTTTCCCGGTAATCCGTATTTGGG (site ACCTACACTCC)”, the “recombinant UMI read abundance (log10)” value stood at 0.0196.

As to “ACCTAAACATGGACCGGTTTTCCCGGTAATCCGTATTTGGG (site ACCTAGACTCC)”, the “recombinant UMI read abundance (log10)” value is 0.0149.

“ACCTAAACATGGACCGGTTTTCCCGGTAATCCGTATTTGGG (site ACCTATACTCC)”: the “recombinant UMI read abundance (log10)” value came out at 0.0143.

For the sequence “ACCTACACATGGACCGGTTTTCCCGGTAATCCGTATTTGGG (site ACCTAAACTCC)”, the “recombinant UMI read abundance (log10)” value was 0.00329.

For the sequence “ACCTACACATGGACCGGTTTTCCCGGTAATCCGTATTTGGG (site ACCTACACTCC)”, the “recombinant UMI read abundance (log10)” value stood at 0.0331.

Regarding “ACCTACACATGGACCGGTTTTCCCGGTAATCCGTATTTGGG (site ACCTAGACTCC)”, the “recombinant UMI read abundance (log10)” value is 0.00747.

On to “ACCTACACATGGACCGGTTTTCCCGGTAATCCGTATTTGGG (site ACCTATACTCC)”, for which the “recombinant UMI read abundance (log10)” value amounted to 0.0213.

With “ACCTAGACATGGACCGGTTTTCCCGGTAATCCGTATTTGCG (site ACCTAGACTCA)”, the “recombinant UMI read abundance (log10)” value came to 0.0199.

For the sequence “ACCTAGACATGGACCGGTTTTCCCGGTAATCCGTATTTGCG (site ACCTAGACTCC)”, the “recombinant UMI read abundance (log10)” value came out at 0.0218.

Turning to “ACCTAGACATGGACCGGTTTTCCCGGTAATCCGTATTTGCG (site ACCTAGACTCG)”, the “recombinant UMI read abundance (log10)” value is 1.58.

Take “ACCTAGACATGGACCGGTTTTCCCGGTAATCCGTATTTGCG (site ACCTAGACTCT)”: the “recombinant UMI read abundance (log10)” value was found to be 0.262.

In the case of “ACCTAGACATGGACCGGTTTTCCCGGTAATCCGTATTTGGC (site ACCTAGACTAC)”, the “recombinant UMI read abundance (log10)” value was found to be 0.532.

Consider “ACCTAGACATGGACCGGTTTTCCCGGTAATCCGTATTTGGC (site ACCTAGACTCC)”, for which the “recombinant UMI read abundance (log10)” value turned out to be 0.0128.

Turning to “ACCTAGACATGGACCGGTTTTCCCGGTAATCCGTATTTGGC (site ACCTAGACTGC)”, the “recombinant UMI read abundance (log10)” value was determined as 1.82.

Turning to “ACCTAGACATGGACCGGTTTTCCCGGTAATCCGTATTTGGC (site ACCTAGACTTC)”, the “recombinant UMI read abundance (log10)” value is 0.00402.

“ACCTAGACATGGACCGGTTTTCCCGGTAATCCGTATTTGTG (site ACCTAGACTCA)”: the “recombinant UMI read abundance (log10)” value was 0.799.

Regarding “ACCTAGACATGGACCGGTTTTCCCGGTAATCCGTATTTGTG (site ACCTAGACTCC)”, the “recombinant UMI read abundance (log10)” value is 0.114.

In the case of “ACCTAGACATGGACCGGTTTTCCCGGTAATCCGTATTTGTG (site ACCTAGACTCG)”, the “recombinant UMI read abundance (log10)” value was 0.469.

With “ACCTAGACATGGACCGGTTTTCCCGGTAATCCGTATTTGTG (site ACCTAGACTCT)”, the “recombinant UMI read abundance (log10)” value was found to be 0.22.

For “ACCTAGCCATGGACCGGTTTTCCCGGTAATCCGTATTTGGG (site ACCTAGACTCC)”, the “recombinant UMI read abundance (log10)” value is 0.00935.
